Results from US20120088803A1, “CONTROL AGENT FOR SOFT ROT AND CONTROL METHOD FOR THE SAME” (Ishihara Sangyo Kaisha, Ltd, priority 2009, published 2012).
Where “and” joins values, the source holds several entries; their conditions need not be identical. Equal entries are not always repeated.

Key:
[1] = tested on: Chinese cabbage soft rot; experiment: Test for disease control of Chinese cabbage, field (Example 1 / Comparative Example 1); format: in vivo, Erwinia carotovora; parameters: key to Disease incidence rate: % of examined plants that are diseased; key to Disease control value: (1 − severity treated/severity untreated) × 100; key to Disease severity: Σ(plants per class × index 0–4)/(plants examined × 4) × 100; details: for Disease incidence rate / Disease severity / Disease control value: 63 days; for Disease control value: vs untreated plot; for Control effect on Chinese cabbage soft rot (in words): Table 1 test, moderate incidence conditions, fluazinam 250 g ai/10 a on soil, streptomycin 1/1000 foliage spraying
Experimental: Preparation was performed using 500 g/L of 3-chloro-N-(3-chloro-5-trifluoromethyl-2-pyridyl)-alpha,alpha,alpha-trifluoro-2,6-dinit ro-p-toluidine (fluazinam (common name), Frowncide SC (trade name), manufactured by Ishihara Sangyo Kaisha, Ltd.) such that the amount of the active ingredient was 250 g ai/10 a (500 mL product/10 a), and the amount of dilution water was 150 L/10 a.
The spray solution prepared in the above was sprayed onto cultivation soil in a field such that the spraying amount was 0.25 g/m^2 (150 L/10 a), and thereafter, a mulch-sheet for agricultural use was spreaded on the soil. After planting holes for settlement (diameter: about 5 cm) were made, seedlings of Chinese cabbage (cultivar: Musou) grown for 4 weeks in a cell tray (128 holes/nursery box) were planted such that 30 seedlings were planted in one test plot having an area of 6 m^2 with three replications.
(§1) Preparation was performed by diluting streptomycin (Mycin 20 wettable powder (trade name), manufactured by Hokko Chemical Industry Co., Ltd.) with water to 1/1000.
(§2) In a field covered with a mulch-sheet for agricultural use, seedlings of Chinese cabbage (cultivar: Musou) grown in a cell tray were planted, in the same manner as in Example 1, and foliage application was performed by spraying the spray solution of streptomycin prepared in (1) (spraying amount per application: 200 L/10 a) twice (39 days and 47 days after the planting of the seedlings).
The degree of disease incidence was examined for all the plants in each test plot 63 days after the start of the test, and the disease incidence rate, the disease severity, and the disease control value were calculated according to the following equations, and the test results are shown in Table 1.
(§3) (Disease incidence rate)=[(number of diseased plants)/(number of plants examined)]*100
(§4) (Disease severity)={S [(number of diseased plants in each class into which the plants are classified according to the degree of disease)*(disease index)]/[(number of plants examined)*4]}*100
(§5) (Disease control value)={1-[(Disease severity in treated plot)/(Disease severity in untreated plot)]}*100
(§6) Incidentally, the evaluation criteria for the disease index are as follows. • (Disease index) • 0: No lesion • 1: Lesions appear only in part of outer leaves (shipment can be made). • 2: Lesions appear in outer leaves and part of head leaves (the damaged part is removed and shipment as a small size plant can be made, rated Grade B). • 3: Lesions appear in most head leaves or more (shipment cannot be made). • 4: Lesions appear in the entire plant and the plant dies.

[2] = tested on: Chinese cabbage soft rot; experiment: Test for disease control of Chinese cabbage, field (Example 3 / Comparative example 2); format: in vivo, Erwinia carotovora; parameters: key to Disease incidence rate: % of examined plants diseased; key to Disease control value: (1 - severity treated/severity untreated) x 100; key to Disease severity: severity index 0-100 from disease index 0-4 weighted counts; details: for Disease incidence rate / Disease severity / Disease control value: 54 days; for Disease control value: vs untreated plot
From the text: as §3, §4, §5, §6
Preparation was performed using 500 g/L of 3-chloro-N-(3-chloro-5-trifluoromethyl-2-pyridyl)-alpha,alpha,alpha-trifluoro-2,6-dinit ro-p-toluidine (fluazinam, Frowncide SC (trade name), manufactured by Ishihara Sangyo Kaisha, Ltd.) such that the amount of the active ingredient was 62.5 g ai/10 a (125 mL product/10 a), 125 g ai/10 a (250 mL product/10 a), and 250 g ai/10 a (500 mL product/10 a), and each amount of dilution water was 150 L/10 a.
A mulch-sheet for agricultural use was spreaded on soil, and planting holes for settlement (diameter: about 9 cm) were made, and then, the spray solution prepared in the above was sprayed onto the planting holes such that the amount of treated active ingredient was 0.0625 g/m^2 (150 L/10 a) in the case of the spray solution containing the active ingredient at 62.5 g ai/10 a, 0.125 g/m^2 (150 L/10 a) in the case of the spray solution containing the active ingredient at 125 g ai/10 a, and 0.25 g/m^2 (150 L/10 a) in the case of the spray solution containing the active ingredient at 250 g ai/10 a, followed by air-drying. Then, seedlings of Chinese cabbage (cultivar: Musou) grown for 4 weeks in a cell tray (128 holes/nursery box) were planted such that 30 seedlings were planted in one test plot having an area of 6 m^2 with two replications.
as §1
as §2, with “3,” for “1,”, “300” for “200”, “three times (13 days, 20 days,” for “twice (39 days”, “27” for “47”
The degree of disease incidence was examined for all the plants in each test plot 54 days after the start of the test, and the disease severity and the disease control value were evaluated. Incidentally, the disease severity and the disease control value were obtained in the same manner as described above.

[3] = tested on: Erwinia carotovora (potato Erwinia carotovora); experiment: Test for growth inhibition of potato Erwinia carotovora (PSA medium plate); format: cell-based; details: for Growing state of Erwinia carotovora (formed colonies): PSA medium, 25 degrees C., 4 days, two plates per cell
Experimental: Reference test example: Test for growth inhibition of potato Erwinia carotovora
A test for growth inhibition of Erwinia carotovora in the case of direct application of the control agent to Erwinia carotovora was performed. To previously melted PSA medium (55 degrees C.), a predetermined amount of a pesticide 3-chloro-N-(3-chloro-5-trifluoromethyl-2-pyridyl)-alpha,alpha,alpha-trifluoro-2,6-dinit ro-p-toluidine (fluazinam, Frowncide SC (trade name), manufactured by Ishihara Sangyo Kaisha, Ltd.), ethaboxam wettable powder (Ethaboxam, Gardian (trade name), manufactured by LG Chemical), or streptomycin (Mycin wettable powder (trade name), manufactured by Hokko Chemical Industry Co., Ltd.) and a suspension of Erwinia carotovora (potato Erwinia carotovora) were added and the resulting mixture was stirred well, and then, poured in a plate. Then, the plate was cultured at 25 degrees C. for 4 days, and the growing state of Erwinia carotovora was examined. Thereafter, the formed colonies were examined according to the following three criteria. • +: Equal to the colonies of the untreated group • Plus or minus: Apparently less than the colonies of the untreated group • −: Almost no colonies

[4] = 1/1000 dilution, foliage application twice, Musou, Average of replications
[5] = 1/1000 dilution, foliage application three times, Musou, Average
[6] = 250 g ai/10 a, 150 L/10a onto cultivation soil, Musou, Average of replications
[7] = 62.5 g ai/10 a, 150 L/10 a onto planting holes, Musou, Average
[8] = 125 g ai/10 a, 150 L/10 a onto planting holes, Musou, Average
[9] = 125 g ai/10 a, 150 L/10 a onto planting holes, Musou, single replications I-II
[10] = 250 g ai/10 a, 150 L/10 a onto planting holes, Musou, Average
[11] = 250 g ai/10 a, 150 L/10 a onto planting holes, Musou, single replications I-II

Work on `[H]/N=C(/N)N[C@H]1[C@H](O)[C@@H](O)[C@H](O[C@@H]2O[C@@H](C)[C@](O)(C=O)[C@H]2O[C@@H]2O[C@@H](CO)[C@H](O)[C@@H](O)[C@@H]2NC)[C@@H](N/C(N)=N\[H])[C@@H]1O` [Streptomycin, streptomycin] yielded a Disease incidence rate [1, 4] of 60.0, a Disease severity [1, 4] of 37.8 and a Disease control value ([1]; 1/1000 dilution, foliage application twice, Musou) of 0. The “Control effect on Chinese cabbage soft rot (in words)” value [1] was “not observed at all”, the Disease incidence rate ([2]; 1/1000 dilution, foliage application 300 L/10 a three times (13, 20, 27 days), Musou, single replications I-II) was 100 and the Disease incidence rate [2, 5] was 100. For the same compound, the Disease severity [2, 5] was 36.7, the Disease severity ([2]; 1/1000 dilution, foliage application three times, Musou, single replications I-II) was 32.5 and 40.8 and the Disease control value ([2]; 1/1000 dilution, foliage application three times, Musou) was 18.4. The “Growing state of Erwinia carotovora (formed colonies)” value (from here on “Growing state of Erwinia carotovora”) ([3]; Active ingredient concentration 1 ppm) was “−, −” and the “Growing state of Erwinia carotovora” value ([3]; Active ingredient concentration 10 ppm) was “−, −”.
For `O=[N+]([O-])c1cc(C(F)(F)F)c(Cl)c([N+](=O)[O-])c1Nc1ncc(C(F)(F)F)cc1Cl` [Fluazinam, 3-chloro-N-(3-chloro-5-trifluoromethyl-2-pyridyl)-alpha,alpha,alpha-trifluoro-2,6-dinit ro-p-toluidine], the Disease incidence rate [1, 6] was 13.3, the Disease severity [1, 6] was 6.4 and the Disease severity ([1]; 250 g ai/10 a, 150 L/10a onto cultivation soil, Musou, single replications I-III) was 5.0 and 8.3 and 5.8. For the same compound, the Disease control value ([1]; 250 g ai/10 a, 150 L/10a onto cultivation soil, Musou) was 81.7, the Disease incidence rate ([1]; 250 g ai/10 a, 150 L/10a sprayed onto cultivation soil before mulch-sheet, cultivar Musou, single replications I-III) was 16.7 and 13.3 and 10.0 and the “Control effect on Chinese cabbage soft rot (in words)” value [1] was “a control effect on Chinese cabbage soft rot was observed”. The Disease incidence rate [2, 7] was 100, the Disease severity [2, 7] was 32.1 and the Disease severity ([2]; 62.5 g ai/10 a, 150 L/10 a onto planting holes, Musou, single replications I-II) was 26.7 and 37.5. For the same compound, the Disease control value ([2]; 62.5 g ai/10 a, 150 L/10 a onto planting holes, Musou) was 28.7, the Disease incidence rate ([2]; 62.5 g ai/10 a, 150 L/10 a onto planting holes, cultivar Musou, single replications I-II) was 100 and the Disease incidence rate [2, 8] was 100. For the same compound, the Disease severity [2, 8] was 30.9, the Disease incidence rate [2, 9] was 100 and the Disease severity [2, 9] was 33.3 and 28.4. The Disease control value ([2]; 125 g ai/10 a, 150 L/10 a onto planting holes, Musou) was 31.3, the Disease incidence rate [2, 10] was 83.3 and the Disease severity [2, 10] was 25. The Disease incidence rate [2, 11] was 73.3 and 93.3, the Disease severity [2, 11] was 20 and 30 and the Disease control value ([2]; 250 g ai/10 a, 150 L/10 a onto planting holes, Musou) was 44.4. For the same compound, the “Control effect on Chinese cabbage soft rot compared with foliage application of streptomycin (in words)” value ([2]; Table 3 test, moderate incidence conditions, even at 62.5 g ai/10 a or 125 g ai/10 a) was “a higher control effect”, the “Growing state of Erwinia carotovora” value ([3]; Active ingredient concentration 100 ppm) was “+, +” and the “Growing state of Erwinia carotovora” value ([3]; Active ingredient concentration 500 ppm) was “+, +”. The “Growing state of Erwinia carotovora” value ([3]; Active ingredient concentration 1000 ppm) was “±, ±” and the “Growth inhibition of Erwinia carotovora (in words)” value ([3]; active ingredient concentration of 1000 ppm, direct application) was “did not inhibit the growth”.
